Common to all, as to assay type: in vivo
Experiment [1] concerns Avena fatua (AVEFA). In words: Pre-emergence herbicidal activity, glasshouse pot test. The note with it: 312 h, Rate 250 g/ha, sprayed one day after sowing, evaluated after 13 days, 100=total damage to plant, 0=no damage to plant. Here is the method:
(§1) Seeds of a variety of test species were sown in standard soil in pots. After cultivation for one day (pre-emergence) or after 8 days cultivation (post-emergence) under controlled conditions in a glasshouse (at 24/16° C., day/night; 14 hours light; 65% humidity), the plants were sprayed with an aqueous spray solution derived from the formulation of the technical active ingredient in acetone/water (50:50) solution containing 0.5% Tween 20 (polyoxyethelyene sorbitan monolaurate, CAS RN 9005-64-5). The test plants were then grown in a glasshouse under controlled conditions in a glasshouse (at 24/16° C., day/night; 14 hours light; 65% humidity) and watered twice daily. After 13 days for pre and post-emergence, the test was evaluated (100=total damage to plant; 0=no damage to plant). Test plants: Setaria faberi (SETFA), Lolium perenne (LOLPE), Alopecurus myosuroides (ALOMY), Echinochloa crus-galli (ECHCG), and Avena fatua (AVEFA) Pre-Emergence Activity

The test system of experiment [2] is Alopecurus myosuroides (ALOMY). Described as above. To be noted: 312 h, Rate 250 g/ha, sprayed one day after sowing, evaluated after 13 days, 100=total damage to plant, 0=no damage to plant. As to the method:
as §1

Experiment [3] relates to Echinochloa crus-galli (ECHCG). The description is as above. To be noted: 312 h, Rate 250 g/ha, sprayed one day after sowing, evaluated after 13 days, 100=total damage to plant, 0=no damage to plant. As to the method:
as §1

For experiment [4], the system named is Avena fatua (AVEFA). In words: Post-emergence herbicidal activity, glasshouse pot test. The note with it: 312 h, rate 250 g/ha, evaluated after 13 days, read-out: Post-emergence activity, AVEFA (100=total damage to plant; 0=no damage to plant). As to the method: as §1, with “plant).” for “plant). Test plants: Setaria faberi (SETFA), Lolium perenne (LOLPE), Alopecurus myosuroides (ALOMY), Echinochloa crus-galli (ECHCG), and Avena fatua (AVEFA) Pre-Emergence Activity”
(§2) Test plants: Setaria faberi (SETFA), Lolium perenne (LOLPE), Alopecurus myosuroides (ALOMY), Echinochloa crus-galli (ECHCG), and Avena fatua (AVEFA)

The subject of experiment [5] is Alopecurus myosuroides (ALOMY). The experiment is described as above. To be noted: 312 h, rate 250 g/ha, evaluated after 13 days, read-out: Post-emergence activity, ALOMY (100=total damage to plant; 0=no damage to plant). Here is the method: as §1, with “plant).” for “plant). Test plants: Setaria faberi (SETFA), Lolium perenne (LOLPE), Alopecurus myosuroides (ALOMY), Echinochloa crus-galli (ECHCG), and Avena fatua (AVEFA) Pre-Emergence Activity”
as §2

In experiment [6] the test system is Echinochloa crus-galli (ECHCG). Described as above. The note with it: 312 h, rate 250 g/ha, evaluated after 13 days, read-out: Post-emergence activity, ECHCG (100=total damage to plant; 0=no damage to plant). Here is the method:
as §1, with “plant).” for “plant). Test plants: Setaria faberi (SETFA), Lolium perenne (LOLPE), Alopecurus myosuroides (ALOMY), Echinochloa crus-galli (ECHCG), and Avena fatua (AVEFA) Pre-Emergence Activity”
as §2

The subject of experiment [7] is Lolium perenne (LOLPE). The experiment is described as follows: Pre-emergence herbicidal activity, glasshouse pot test. To be noted: 312 h, Rate 250 g/ha, sprayed one day after sowing, evaluated after 13 days, 100=total damage to plant, 0=no damage to plant. As to the method:
as §1

Experiment [8] has as its system Lolium perenne (LOLPE). The experiment is described as follows: Post-emergence herbicidal activity, glasshouse pot test. The note with it: 312 h, rate 250 g/ha, evaluated after 13 days, read-out: Post-emergence activity, LOLPE (100=total damage to plant; 0=no damage to plant). Here is the method: as §1, with “plant).” for “plant). Test plants: Setaria faberi (SETFA), Lolium perenne (LOLPE), Alopecurus myosuroides (ALOMY), Echinochloa crus-galli (ECHCG), and Avena fatua (AVEFA) Pre-Emergence Activity”
as §2

On to `CCc1ccc(-c2ccc(Cl)cc2)cc1C1=C(O)CCC1=O` [Compound T-1, 2-(4′-chloro-4-ethylbiphen-3-yl)-1,3-cyclopentanedione], for which the pest or weed control at 250 g/ha was 70% in the experiment on Avena fatua (AVEFA) [1]; 90% in experiment [2]; 100% in experiment [3]; 90% in the experiment on Avena fatua (AVEFA) [4]; 80% in experiment [5]; 100% in experiment [6].

With `CCc1ccc(-c2ccc(Cl)cc2)cc1C1=C(O)C2CSCC2C1=O` (stereo not drawn) [Compound T-2, 5-(4′-Chloro-4-ethylbiphenyl-3-yl)-tetrahydrocyclopenta[c]thiophene-4,6-dione], the pest or weed control at 250 g/ha amounted to 0% in the experiment on Avena fatua (AVEFA) [1]; 0% in the experiment on Lolium perenne (LOLPE) [7]; 0% in experiment [2]; 70% in experiment [3]; 80% in the experiment on Avena fatua (AVEFA) [4]; 0% with Lolium perenne (LOLPE) [8]. For the same molecule, the pest or weed control at 250 g/ha worked out at 20% in experiment [5] and 100% in experiment [6].

`CCc1ccc(-c2ccc(Cl)cc2F)cc1C1=C(O)CCC1=O` [Compound T-3, 2-(4′-chloro-4-ethyl-2′-fluorobiphenyl-3-yl)cyclopentane-1,3-dione]: the pest or weed control at 250 g/ha in the experiment with Avena fatua (AVEFA) [1] worked out at 60%; in the experiment with Lolium perenne (LOLPE) [7] it was 90%; in experiment [2], 30%; in experiment [3], 100%; in the experiment with Avena fatua (AVEFA) [4], 90%; with Lolium perenne (LOLPE) [8], 40%. The pest or weed control at 250 g/ha in experiment [5] was found to be 30%; in experiment [6], 100%.

On to `CCc1ccc(-c2ccc(Cl)cc2C)cc1C1=C(O)CCC1=O` [Compound T-4], for which the pest or weed control at 250 g/ha with Avena fatua (AVEFA) [1] was 10%; in the experiment on Lolium perenne (LOLPE) [7] it was 60%; in experiment [2] it was 50%; in experiment [3], 50%; in the experiment on Avena fatua (AVEFA) [4] it was 0%; with Lolium perenne (LOLPE) [8] it was 30%. The figures for the pest or weed control at 250 g/ha in experiment [5] and in experiment [6] were 50% and 70%, respectively.

In the case of `CCc1ccc(-c2ccc(Cl)c(Cl)c2)cc1C1=C(O)CCC1=O` [Compound T-5], the pest or weed control at 250 g/ha in the experiment with Avena fatua (AVEFA) [1] came out at 0%; with Lolium perenne (LOLPE) [7], 20%; in experiment [2], 20%; in experiment [3] it was 20%; with Avena fatua (AVEFA) [4] it was 20%; with Lolium perenne (LOLPE) [8], 50%. Also, the pest or weed control at 250 g/ha in experiment [5] was determined as 30%; in experiment [6], 70%.

Take `CCc1ccc(-c2ccc(Cl)c(OC)c2)cc1C1=C(O)CCC1=O` [Compound T-6]: the pest or weed control at 250 g/ha came out at 0% in the experiment on Avena fatua (AVEFA) [1]; 30% with Lolium perenne (LOLPE) [7]; 0% in experiment [2]; 60% in experiment [3]; 10% in the experiment on Avena fatua (AVEFA) [4]; 60% in the experiment with Lolium perenne (LOLPE) [8]. Besides, the pest or weed control at 250 g/ha in experiment [5] stood at 50%; in experiment [6], 90%.

Take `CCc1ccc(-c2ccc3ccccc3c2)cc1C1=C(O)CCC1=O` [Compound T-7]: the pest or weed control at 250 g/ha with Avena fatua (AVEFA) [1] was 0%; with Lolium perenne (LOLPE) [7], 10%; in experiment [2] it was 0%; in experiment [3] it was 20%; in the experiment with Avena fatua (AVEFA) [4], 10%; in the experiment with Lolium perenne (LOLPE) [8] it was 30%. Besides, the pest or weed control at 250 g/ha in experiment [5] came out at 10%; in experiment [6], 20%.

For the molecule `CCc1ccc(-c2ccc(Cl)c(C(F)(F)F)c2)cc1C1=C(O)CCC1=O` [Compound T-8], the pest or weed control at 250 g/ha is 0% in the experiment with Avena fatua (AVEFA) [1]; 60% in the experiment on Lolium perenne (LOLPE) [7]; 30% in experiment [2]; 60% in experiment [3]; 30% in the experiment on Avena fatua (AVEFA) [4]; 60% in the experiment on Lolium perenne (LOLPE) [8]. Besides, the pest or weed control at 250 g/ha was 50% in experiment [5] and 100% in experiment [6].

`CCc1ccc(-c2ccc(Cl)c(F)c2)cc1C1=C(O)CCC1=O` [Compound T-9]: the pest or weed control at 250 g/ha is 50% with Avena fatua (AVEFA) [1]; 80% in the experiment with Lolium perenne (LOLPE) [7]; 60% in experiment [2]; 90% in experiment [3]; 60% in the experiment on Avena fatua (AVEFA) [4]; 60% with Lolium perenne (LOLPE) [8]. Besides, the values for the pest or weed control at 250 g/ha in experiment [5] and in experiment [6] were 30% and 100%, respectively.

For `CCc1ccc(-c2c(F)cc(Cl)cc2F)cc1C1=C(O)CCC1=O` [Compound T-10], the pest or weed control at 250 g/ha with Avena fatua (AVEFA) [1] amounted to 0%; with Lolium perenne (LOLPE) [7], 0%; in experiment [2], 0%; in experiment [3], 0%; with Avena fatua (AVEFA) [4], 50%; in the experiment with Lolium perenne (LOLPE) [8], 40%. Moreover, the pest or weed control at 250 g/ha in experiment [5] came to 30%; in experiment [6] it was 90%.

For `CCc1ccc(-c2ccc(Cl)c(F)c2Cl)cc1C1=C(O)CCC1=O` [Compound T-11], the pest or weed control at 250 g/ha in the experiment with Avena fatua (AVEFA) [1] was determined as 10%; in the experiment with Lolium perenne (LOLPE) [7], 30%; in experiment [2], 20%; in experiment [3], 50%; in the experiment with Avena fatua (AVEFA) [4], 30%; in the experiment with Lolium perenne (LOLPE) [8] it was 50%. Also, the figures for the pest or weed control at 250 g/ha in experiment [5] and in experiment [6] were 60% and 90%, respectively.

As to `CCc1ccc(-c2ccc(Cl)c(F)c2F)cc1C1=C(O)CCC1=O` [Compound T-12], the pest or weed control at 250 g/ha in the experiment with Avena fatua (AVEFA) [1] amounted to 30%; with Lolium perenne (LOLPE) [7], 50%; in experiment [2], 40%; in experiment [3], 50%; in the experiment on Avena fatua (AVEFA) [4], 50%; in the experiment on Lolium perenne (LOLPE) [8], 50%. Also, the pest or weed control at 250 g/ha came out at 50% in experiment [5] and 90% in experiment [6].

For the molecule `CCc1ccc(-c2ccc(Cl)c(Cl)c2F)cc1C1=C(O)CCC1=O` [Compound T-13], the pest or weed control at 250 g/ha with Avena fatua (AVEFA) [1] was determined as 0%; with Lolium perenne (LOLPE) [7], 0%; in experiment [2] it was 0%; in experiment [3] it was 0%; in the experiment with Avena fatua (AVEFA) [4], 0%; with Lolium perenne (LOLPE) [8], 40%. Further, the pest or weed control at 250 g/ha stood at 10% in experiment [5] and 60% in experiment [6].

`CCc1ccc(-c2ccc(Cl)cc2Cl)cc1C1=C(O)CCC1=O` [Compound T-14]: the pest or weed control at 250 g/ha with Avena fatua (AVEFA) [1] worked out at 0%; with Lolium perenne (LOLPE) [7] it was 30%; in experiment [2] it was 10%; in experiment [3] it was 50%; with Avena fatua (AVEFA) [4], 30%; in the experiment on Lolium perenne (LOLPE) [8], 30%. The pest or weed control at 250 g/ha in experiment [5] worked out at 30%; in experiment [6] it was 70%.

Take `CCc1ccc(-c2ccc(Cl)c(C)c2)cc1C1=C(O)CCC1=O` [Compound T-15]: the pest or weed control at 250 g/ha in the experiment with Avena fatua (AVEFA) [1] worked out at 0%; in the experiment on Lolium perenne (LOLPE) [7], 0%; in experiment [2], 0%; in experiment [3] it was 0%; in the experiment on Avena fatua (AVEFA) [4], 0%; with Lolium perenne (LOLPE) [8] it was 30%. For the same molecule, the pest or weed control at 250 g/ha stood at 10% in experiment [5] and 30% in experiment [6].

With `CCc1ccc(-c2cc(Cl)c(Cl)cc2Cl)cc1C1=C(O)CCC1=O` [Compound T-16], the pest or weed control at 250 g/ha in the experiment with Avena fatua (AVEFA) [1] was 0%; with Lolium perenne (LOLPE) [7], 20%; in experiment [2] it was 0%; in experiment [3] it was 50%; in the experiment on Avena fatua (AVEFA) [4], 80%; in the experiment with Lolium perenne (LOLPE) [8] it was 60%. In addition, the pest or weed control at 250 g/ha is 50% in experiment [5] and 80% in experiment [6].

Source of the values: US8530388B2, “Cyclopentadione derived herbicides” (Syngenta Limited, priority 2009, dated 2013).
